Values after ≈ are worked out from the molar mass of the structure shown.
What was measured:
[1] = tested on: Salmonella typhi; assay: Antibacterial activity against beta-lactamase producing Salmonella typhi H901 after 18 hrs by agar dilution assay; format: functional, Salmonella enterica subsp. enterica serovar Typhi; conditions: Salmonella enterica, H901, 18 h
[2] = tested on: Proteus mirabilis; assay: Antibacterial activity against beta-lactamase producing Proteus mirabilis 09-1 after 18 hrs by agar dilution assay; format: functional; conditions: 09-1, 18 h
[3] = tested on: Proteus vulgaris; assay: Antibacterial activity against beta-lactamase producing Proteus vulgaris 29905 after 18 hrs by agar dilution assay; format: functional; conditions: Proteus vulgaris, 29905, 18 h
[4] = tested on: Providencia rettgeri; assay: Antibacterial activity against Providencia rettgeri 31052 after 18 hrs by agar dilution assay; format: functional; conditions: Providencia rettgeri, 31052, 18 h
[5] = tested on: Pseudomonas aeruginosa; assay: Antimicrobial activity against Pseudomonas aeruginosa PAO1 after 18 hrs by microdilution method in absence of iron; conditions: PAO1, 18 h
[6] = tested on: Morganella morganii; assay: Antibacterial activity against beta-lactamase producing Morganella morganii 25830 after 18 hrs by agar dilution assay; format: functional; conditions: Morganella morganii, 25830, 18 h
[7] = tested on: Serratia marcescens; assay: Antibacterial activity against beta-lactamase producing Serratia marcescens 41002 after 18 hrs by agar dilution assay; format: functional; conditions: Serratia marcescens, 41002, 18 h
[8] = tested on: Klebsiella aerogenes; assay: Antibacterial activity against beta-lactamase producing Enterobacter aerogenes 45102 after 18 hrs by agar dilution assay; format: functional; conditions: Klebsiella aerogenes, 45102, 18 h
[9] = tested on: Enterobacter cloacae; assay: Antibacterial activity against beta-lactamase producing Enterobacter cloacae 45301 after 18 hrs by agar dilution assay; format: functional; conditions: Enterobacter cloacae, 45301, 18 h
[10] = tested on: Pseudomonas aeruginosa; assay: Antimicrobial activity against Pseudomonas aeruginosa 27853 after 18 hrs by microdilution method in presence of 0.4 uM iron; format: functional
[11] = tested on: Pseudomonas aeruginosa; assay: Antimicrobial activity against Pseudomonas aeruginosa 27853 after 18 hrs by microdilution method in presence of 40 uM iron; format: functional
[12] = tested on: Escherichia coli; assay: Selectivity ratio of MIC for Escherichia coli BL21 to MIC for acrAB and acrEF knock-out Escherichia coli BL21; format: functional
[13] = tested on: Klebsiella pneumoniae; assay: Antibacterial activity against ESBL negative Klebsiella pneumoniae 7 after 18 hrs by agar dilution assay; format: functional; conditions: Klebsiella pneumoniae, 7, 18 h
[14] = tested on: Klebsiella pneumoniae; assay: Antibacterial activity against NDM-1 positive Klebsiella pneumoniae BAA-2146 after 18 hrs by agar dilution assay; format: functional; conditions: BAA-2146, 18 h
[15] = tested on: Klebsiella pneumoniae; assay: Antibacterial activity against ESBL negative Klebsiella pneumoniae 09-8 after 18 hrs by agar dilution assay; format: functional; conditions: 09-8, 18 h
[16] = tested on: Pseudomonas aeruginosa; assay: Antimicrobial activity against Pseudomonas aeruginosa PAO1 after 18 hrs by microdilution method in presence of 0.4 uM iron; format: functional
[17] = tested on: Pseudomonas aeruginosa; assay: Antimicrobial activity against Pseudomonas aeruginosa 27853 after 18 hrs by microdilution method in presence of 4 uM iron; format: functional
[18] = tested on: Pseudomonas aeruginosa; assay: Antimicrobial activity against Pseudomonas aeruginosa PAO1 after 18 hrs by microdilution method in presence of 4 uM iron; format: functional
[19] = tested on: Pseudomonas aeruginosa; assay: Antimicrobial activity against Pseudomonas aeruginosa PAO1 after 18 hrs by microdilution method in presence of 40 uM iron; format: functional
[20] = tested on: Escherichia coli; assay: Antibacterial activity against acrAB and acrEF knock-out Escherichia coli BL21 by microbroth dilution assay; format: functional
[21] = tested on: Escherichia coli; assay: Antibacterial activity against Escherichia coli BL21 by microbroth dilution assay; format: functional
[22] = tested on: Pseudomonas aeruginosa; assay: Antibacterial activity against BL positive Pseudomonas aeruginosa 09-14 after 18 hrs by agar dilution assay; format: functional; conditions: 09-14, 18 h
[23] = tested on: Pseudomonas aeruginosa; assay: Antibacterial activity against BL positive Pseudomonas aeruginosa PAO1 after 18 hrs by agar dilution assay; format: functional; conditions: PAO1, 18 h
[24] = tested on: Pseudomonas aeruginosa; assay: Antibacterial activity against BL positive Pseudomonas aeruginosa 27853 after 18 hrs by agar dilution assay; format: functional; conditions: Pseudomonas aeruginosa, 27853, 18 h
[25] = tested on: Klebsiella pneumoniae; assay: Antibacterial activity against ESBL positive Klebsiella pneumoniae 09-25 after 18 hrs by agar dilution assay; format: functional; conditions: 09-25, 18 h
[26] = tested on: Klebsiella pneumoniae; assay: Antibacterial activity against ESBL positive Klebsiella pneumoniae 700603 after 18 hrs by agar dilution assay; format: functional; conditions: Klebsiella pneumoniae, 700603, 18 h
[27] = tested on: Escherichia coli; assay: Antibacterial activity against ESBL negative Escherichia coli 09-20 after 18 hrs by agar dilution assay; format: functional; conditions: 09-20, 18 h
[28] = tested on: Escherichia coli; assay: Antibacterial activity against ESBL positive Escherichia coli 09-1 after 18 hrs by agar dilution assay; format: functional; conditions: 09-1, 18 h
[29] = tested on: Escherichia coli; assay: Antibacterial activity against ESBL negative Escherichia coli 1515 after 18 hrs by agar dilution assay; format: functional; conditions: Escherichia coli, 1515, 18 h
[30] = tested on: Escherichia coli; assay: Antibacterial activity against ESBL negative Escherichia coli 25922 after 18 hrs by agar dilution assay; format: functional; conditions: Escherichia coli, 25922, 18 h
[31] = tested on: Citrobacter freundii; assay: Antibacterial activity against beta-lactamase producing Citrobacter freundii 43864 after 18 hrs by agar dilution assay; format: functional; conditions: Citrobacter freundii, 43864, 18 h
[32] = tested on: Pseudomonas aeruginosa; assay: microbe, parasite or virus in culture; conditions: Pseudomonas aeruginosa, 27853, 18 h
Description: Antimicrobial activity against Pseudomonas aeruginosa 27853 after 18 hrs by microdilution method in absence of iron

[33] = Pseudomonas aeruginosa, 27853, 18 h

| Compound | MIC [1] [mg/L] | MIC [2] [mg/L] | MIC [3] [mg/L] | MIC [4] [mg/L] | MIC [5] [mg/L] | MIC [6] [mg/L] | MIC [7] [mg/L] | MIC [8] [mg/L] | MIC [9] [mg/L] | MIC [10, 33] [mg/L] | MIC [11, 33] [mg/L] | Selectivity ratio [12] | MIC [13] [mg/L] | MIC [14] [mg/L] | MIC [15] [mg/L] | MIC ([16]; PAO1, 18 h) [mg/L] | MIC [17, 33] [mg/L] | MIC ([18]; PAO1, 18 h) [mg/L] | MIC ([19]; PAO1, 18 h) [mg/L] | MIC [20] [mg/L] | also measured |
| --- | --- | --- | --- | --- | --- | --- | --- | --- | --- | --- | --- | --- | --- | --- | --- | --- | --- | --- | --- | --- | --- |
| CCN(CC)CC.C[C@H]1[C@H](NC(=O)/C(=N\OCc2ccc(C(=O)N/N=C/c3ccccc3O)cc2)c2csc(N)n2)C(=O)N1S(=O)(=O)O (relative stereo) | 0.5 | 8 | 0.25 | ≤ 0.03 | > 128 | 2 | 8 | 2 | 2 | 128 | > 128 | >16 | 2 | > 64 | 16 | 128 | 128 | 128 | > 128 | 2 | MIC [21]: 64 mg/L; MIC [22]: 4 mg/L; MIC [23]: 4 mg/L; MIC [24]: 8 mg/L; MIC [25]: > 64 mg/L; MIC [26]: > 64 mg/L; MIC [27]: 64 mg/L; MIC [28]: 64 mg/L; MIC [29]: 2 mg/L; MIC [30]: 4 mg/L; MIC [31]: 4 mg/L; MIC [32]: 128 mg/L |
| CC1(C)[C@H](NC(=O)/C(=N\OCc2cccnc2)c2csc(N)n2)C(=O)N1S(=O)(=O)O | 32 (≈ 70.4 µM) | 32 (≈ 70.4 µM) | 0.25 (≈ 0.55 µM) | 0.03 (≈ 0.066 µM) | > 128 | 0.5 (≈ 1.1 µM) | 8 (≈ 17.6 µM) | 8 (≈ 17.6 µM) | 4 (≈ 8.8 µM) | > 128 | > 128 | >16 | 4 (≈ 8.8 µM) | 32 (≈ 70.4 µM) | 8 (≈ 17.6 µM) | > 128 | > 128 | > 128 | > 128 | 0.5 (≈ 1.1 µM) | MIC [21]: 32 mg/L (≈ 70.4 µM); MIC [22]: > 128 mg/L; MIC [23]: 128 mg/L (≈ 282 µM); MIC [24]: > 128 mg/L; MIC [25]: 8 mg/L (≈ 17.6 µM); MIC [26]: 64 mg/L (≈ 141 µM); MIC [27]: 4 mg/L (≈ 8.8 µM); MIC [28]: 4 mg/L (≈ 8.8 µM); MIC [29]: 16 mg/L (≈ 35.2 µM); MIC [30]: 8 mg/L (≈ 17.6 µM); MIC [31]: 4 mg/L (≈ 8.8 µM); MIC [32]: > 128 mg/L |
| GENTAMICIN | – | – | – | – | – | – | – | – | – | – | – | – | – | – | – | – | – | – | – | – | MIC [10]: 1 mg/L; MIC [11]: 128 mg/L; MIC [16]: 128 mg/L; MIC [17]: 1 mg/L; MIC [18]: 1 mg/L; MIC [19]: 128 mg/L |
| CC1(C)[C@H](NC(=O)/C(=N\OCc2ccccn2)c2csc(N)n2)C(=O)N1S(=O)(=O)O | 32 (≈ 70.4 µM) | 2 (≈ 4.4 µM) | 0.125 (≈ 0.275 µM) | 0.06 (≈ 0.132 µM) | 64 (≈ 141 µM) | 0.5 (≈ 1.1 µM) | 8 (≈ 17.6 µM) | 8 (≈ 17.6 µM) | 1 (≈ 2.2 µM) | 128 | 128 | >16 | 4 (≈ 8.8 µM) | 16 (≈ 35.2 µM) | 4 (≈ 8.8 µM) | 64 | 128 | 128 | 64 | ≤ 0.06 | MIC [21]: 2 mg/L (≈ 4.4 µM); MIC [22]: 64 mg/L (≈ 141 µM); MIC [23]: 32 mg/L (≈ 70.4 µM); MIC [24]: 64 mg/L (≈ 141 µM); MIC [25]: 32 mg/L (≈ 70.4 µM); MIC [26]: > 128 mg/L; MIC [27]: 4 mg/L (≈ 8.8 µM); MIC [28]: 4 mg/L (≈ 8.8 µM); MIC [29]: 2 mg/L (≈ 4.4 µM); MIC [30]: 2 mg/L (≈ 4.4 µM); MIC [31]: 2 mg/L (≈ 4.4 µM); MIC [32]: 128 mg/L (≈ 282 µM) |
